From patent US4581354A, “3-arylcarbonyl- and 3-cycloalkylcarbonyl-1-aminoalkyl-1H-indoles, compositions and use” (Sterling Drug Inc., priority 1985, dated 1986) come the findings set out here.

Like-named read-outs stand apart in the source and are kept apart here.

In the experiment the test system is acetylcholine-induced abdominal constriction. Description: animal or person. It is filed as in vivo, mice. As to conditions: for ED50: read-out: Ach ED50; for inhibition in vivo at 300 mg/kg: 300 mg./kg. oral; for inhibition in vivo at 3 mg/kg: 3 mg./kg. i.v.; for inhibition in vivo at 10 mg/kg: 10 mg./kg. i.v.; for inhibition in vivo at 550 mg/kg: 550 mg./kg. oral; for inhibition in vivo at 150 mg/kg: 150 mg./kg. oral; for Ach ED50: oral. The source says:
The test procedures used to determine the analgesic activities of the compounds have been described in detail in the prior art and are as follows: The acetylcholine-induced abdominal constriction test, which is a primary analgesic screening test designed to measure the ability of a test agent to suppress acetylcholine-induced abdominal constriction in mice, described by Collier et al., Brit. J. Pharmacol. Chemotherap. 32, 295 (1968); a modification of the anti-bradykinin test, which is also a primary analgesic screening procedure, described by Berkowitz et al., J. Pharmacol. Exptl. Therap. 177, 500-508 (1971), Blane et al., J. Pharm. Pharmacol. 19, 367-373 (1967), Botha et al., Eur. J. Pharmacol. 6, 312-321 (1969) and Deffenu et al., J. Pharm. Pharmacol. 18, 135 (1966); and the rat paw flexion test, described by Kuzuna et al., Chem. Pharm. Bull., 23, 1184-1191 (1975), Winter et al., J. Pharm. Exptl. Therap., 211, 678-685 (1979) and Capetola et al., J. Pharm. Exptl. Therap. 214, 16-23 (1980).
Unless noted otherwise, all data were obtained on oral administration and are expressed either as the ED50 or as the percent inhibition at a given dose level (thus 30/100 or 30% inhibition at […].)
In some instances, the compounds were retested two or more times, and ED50 values were calculated for each series of repeat tests. In such instances, each of the ED50 values so-obtained is given in a series of values, thus 6, 28, 30, 43 in the case of the species of Example 1AW in the acetylcholine-induced abdominal constriction test.

[1] abbreviates: Mus musculus, po, 100 mg./kg. oral, read-out: Ach percent inhibition.
Where [2] appears, read: Mus musculus, po, read-out: Ach percent inhibition.
Setting [3] is: Mus musculus, iv, read-out: Ach percent inhibition.
Setting [4] is: Mus musculus, iv, 30 mg./kg. i.v., read-out: Ach percent inhibition.
[5] abbreviates: Mus musculus, sc, 30 mg./kg. s.c., read-out: Ach percent inhibition.
Where [6] appears, read: Mus musculus, po, 30 mg./kg. oral, read-out: Ach percent inhibition.

By ED50 is commonly meant the dose at which the effect has come halfway, by size or by number of responders.

Compound “5-bromo-2-methyl-3-(4-methylbenzoyl)-1-[2-(4-morpholinyl)ethyl]-1H-indole [Example 33]” gave an Ach percent inhibition (100 mg./kg. oral) of 20%.

In the case of `COc1ccc(C(=O)c2c(C)n(CCN3CCOCC3)c3cc(Cl)ccc23)cc1` [Example 1-O], where the note is “Mus musculus, po”, the ED50 is 91.6 mg/kg.

As to `Cc1c(C(=O)c2ccc(C#N)cc2)c2ccccc2n1CCCN1CCOCC1` [Example 1AA], under setting [1], the inhibition in vivo at 100 mg/kg was 10%.

For `Cc1cccc2c1c(C(=O)c1ccccc1)c(C)n2CCN1CCOCC1` [Example 1AB], the inhibition in vivo at 300 mg/kg under setting [2] was determined as 47%.

In the case of `Cc1c(C(=O)c2ccc(C#N)cc2)c2ccccc2n1CCN1CCOCC1` [Example 1AF, 2-methyl-3-(4-cyanobenzoyl)-1-[2-(4-morpholinyl)ethyl]-1H-indole], under setting [3], the inhibition in vivo at 3 mg/kg came out at 0% and the inhibition in vivo at 10 mg/kg worked out at 0%. Moreover, the inhibition in vivo at 30 mg/kg under setting [4] came to 30%. Also, the 50% effective dose (ED50) (Mus musculus, po) amounted to 200 mg/kg.

`Cc1c(C(=O)c2ccc(OCc3ccccc3)cc2)c2ccccc2n1CCN1CCOCC1` [Example 1AG, 2-methyl-3-(4-benzyloxybenzoyl)-1-[2-(4-morpholinyl)ethyl]-1H-indole]: under setting [3], the inhibition in vivo at 10 mg/kg worked out at 10%. Moreover, the inhibition in vivo at 30 mg/kg under setting [4] was 56% and the inhibition in vivo at 30 mg/kg under setting [5] is 20%. Moreover, the inhibition in vivo at 100 mg/kg under setting [1] turned out to be 40%. Further, under setting [2], the inhibition in vivo at 300 mg/kg was 47%.

`COc1cccc(C(=O)c2c(C)n(CCN3CCOCC3)c3ccccc23)c1` [Example 1AH]: for the setting “Mus musculus, po”, the ED50 was 85 mg/kg.

On to `COc1ccc(C(=O)c2c(C)n(CCN3CCOCC3)c3ccccc23)cc1OC` [Example 1AI], for which the ED50 (Mus musculus, po) is 74 mg/kg.

Consider `COc1ccc(C(=O)c2c(-c3ccccc3)n(CCN3CCOCC3)c3ccccc23)cc1` [Example 1AJ], for which, under setting [1], the inhibition in vivo at 100 mg/kg was determined as 13%. Further, the inhibition in vivo at 300 mg/kg under setting [2] turned out to be 53%.

As to `COc1ccc2c(c1)c(C(=O)c1ccccc1)cn2CCN1CCOCC1` [Example 1AK], under setting [2], the inhibition in vivo at 300 mg/kg is 40% and the inhibition in vivo at 550 mg/kg turned out to be 47%.

For the compound `COc1ccc2c(c1)c(C(=O)c1ccccc1)c(C)n2CCN1CCOCC1` [Example 1AL], the ED50 (Mus musculus, po) came out at 113 mg/kg.

In the case of `COc1ccc(C(=O)c2c(C)n(CCN3CCOCC3)c3cc(OC)ccc23)cc1` [Example 1AM], the ED50 is, setting by setting: (Mus musculus, iv) 5 mg/kg; (Mus musculus, po) 32 mg/kg.

As to `O=C(c1ccc(Cl)cc1)c1cn(CCN2CCOCC2)c2ccccc12` [Example 1AR], under setting [2], the inhibition in vivo at 150 mg/kg came to 27% and the inhibition in vivo at 300 mg/kg turned out to be 27%. Moreover, where the note is “Mus musculus, sc, 25 mg./kg. s.c., read-out: Ach percent inhibition”, the inhibition in vivo at 25 mg/kg worked out at 13%.

Turning to `Cc1c(C(=O)c2ccc(Cl)c(Cl)c2)c2ccccc2n1CCN1CCOCC1` [Example 1AS], under setting [2], the inhibition in vivo at 300 mg/kg turned out to be 33%.

Consider `CC(Cn1cc(C(=O)c2ccccc2)c2ccccc21)N1CCOCC1` (stereo not shown) [Example 1AZ], for which the inhibition in vivo at 75 mg/kg (Mus musculus, po, 75 mg./kg. oral, read-out: Ach percent inhibition) came to 20%. The inhibition in vivo at 100 mg/kg under setting [1] is 73%. Also, under setting [2], the inhibition in vivo at 150 mg/kg amounted to 53%.

For the compound `Cc1cccc2c(C(=O)c3ccccc3)cn(CCN3CCOCC3)c12` [Example 1BA], the ED50 (Mus musculus, po) came to 197 mg/kg.

Consider `Cc1c(C(=O)c2cccc3ccccc23)c2ccccc2n1CCN1CCOCC1` [Example 1BB], for which the ED50 (Mus musculus, po) worked out at 97 mg/kg.

On to `Cc1c(C(=O)c2ccc(C#N)cc2)c2ccccc2n1CCN1CCCC1` [Example 1BC], for which, under setting [1], the inhibition in vivo at 100 mg/kg came to 40%.

As to `CCN(CC)CCn1c(C)c(C(=O)c2ccc(OC)cc2)c2ccccc21` [Example 1BD], for the setting “Mus musculus, po”, the ED50 was determined as 65 mg/kg.

On to `CCN(CC)CCn1c(C)c(C(=O)c2ccc(OC)cc2)c2ccccc21` [Example 1BE], for which the “Ach ED50” value was found to be 50.9 mg/kg.

Turning to `COc1ccc(C(=O)c2c(C)n(CCN3CCOCC3)c3ccccc23)cc1` [Example 1BF], the inhibition in vivo at 30 mg/kg under setting [6] was 0%.

Consider `CCCOc1ccc(C(=O)c2c(C)n(CCN3CCOCC3)c3ccccc23)cc1` [Example 1BG], for which the inhibition in vivo at 300 mg/kg under setting [2] came to 33%.

Consider `CCOc1ccc(C(=O)c2c(C)n(CCN3CCOCC3)c3ccccc23)cc1` [Example 1BH], for which the inhibition in vivo at 10 mg/kg under setting [3] came to 50%. Besides, the inhibition in vivo at 30 mg/kg under setting [6] worked out at 0%. Under setting [1], the inhibition in vivo at 100 mg/kg stood at 27%. In addition, under setting [2], the inhibition in vivo at 300 mg/kg stood at 53% and the inhibition in vivo at 550 mg/kg was 58%. Besides, the inhibition in vivo at 30 mg/kg under setting [5] amounted to 7%.

Take `COc1ccc2cc(C(=O)c3c(C)n(CCN4CCOCC4)c4ccccc34)ccc2c1` [Example 1BJ]: under setting [1], the inhibition in vivo at 100 mg/kg came to 0%.

Consider `Cc1c(C(=O)c2ccc(C#N)cc2)c2cc(F)ccc2n1CCCN1CCOCC1` [Example 1BL], for which, under setting [1], the inhibition in vivo at 100 mg/kg came to 0%.

In the case of `COc1ccc(C(=O)c2cn(CCCN3CCOCC3)c3ccc(F)cc23)cc1` [Example 1BM], the inhibition in vivo at 100 mg/kg under setting [1] came to 0%.

Take `COc1ccc(C(=O)c2c(C)n(CCCN3CCCCC3)c3ccc(F)cc23)cc1` [Example 1BN]: the median effective dose (ED50) (Mus musculus, po) came to 36 mg/kg.

On to `Cc1c(C(=O)c2ccccc2)c2cc(F)ccc2n1CCCN1CCOCC1` [Example 1BO], for which the ED50 (Mus musculus, po) came to 173 mg/kg.

`CCN(CC)CCCn1c(C)c(C(=O)c2ccc(OC)cc2)c2cc(F)ccc21` [Example 1BP]: the 50% effective dose (ED50) (Mus musculus, po) turned out to be 28 mg/kg.

Turning to `COc1ccc(C(=O)c2c(C)n(CCCN3CCOCC3)c3c(F)cc(F)cc23)cc1` [Example 1BR], where the note is “Mus musculus, po”, the 50% effective dose (ED50) is 123 mg/kg.

`COc1ccc(C(=O)c2c(C)n(C(C)CCN3CCOCC3)c3ccc(F)cc23)cc1` (stereo not shown) [Example 1BT]: the inhibition in vivo at 100 mg/kg under setting [1] worked out at 90%.

Consider `Cc1c(C(=O)c2ccccc2F)c2cc(F)ccc2n1C(C)CCN1CCOCC1` (stereo not shown) [Example 1BW], for which the inhibition in vivo at 100 mg/kg under setting [1] was found to be 10%.

On to `Cc1c(C(=O)c2ccc(-c3ccccc3)cc2)c2ccccc2n1CCN1CCOCC1` [Example 1BZ], for which the inhibition in vivo at 100 mg/kg under setting [1] came out at 0%.

For `Cc1c(C(=O)c2cccc3c2OCO3)c2ccccc2n1CCN1CCOCC1` [Example 1CA], under setting [1], the inhibition in vivo at 100 mg/kg stood at 20%.

Turning to `Cc1c(C(=O)c2ccccc2-c2ccccc2)c2ccccc2n1CCN1CCOCC1` [Example 1CB], the inhibition in vivo at 100 mg/kg under setting [1] worked out at 60%.

For `Cc1c(C(=O)c2ccc(C#N)cc2)c2cc(F)ccc2n1CCN1CCOCC1` [Example 1CC], under setting [1], the inhibition in vivo at 100 mg/kg stood at 10%.

On to `Cc1c(C(=O)c2ccccc2F)c2ccccc2n1C(C)CCN1CCOCC1` (stereo not shown) [Example 1CD], for which the ED50 (Mus musculus, po) is 79 mg/kg.

Consider `CCN(CC)CCn1c(C)c(C(=O)c2ccc3ccccc3c2)c2ccccc21` [Example 1CE], for which the inhibition in vivo at 100 mg/kg under setting [1] was 0%.

For the compound `COc1ccc(C(=O)c2c(C)n(CCCN3CCCC3)c3ccccc23)cc1` [Example 1CF], the ED50 (Mus musculus, po) turned out to be 24 mg/kg.

`COc1ccc(C(=O)c2c(C)n(CCCN3CCCC3)c3ccccc23)cc1` [Example 1CG]: the “Ach ED50” value is 46.3 mg/kg.

Turning to `CN(C)CCn1cc(C(=O)c2ccccc2)c2ccccc21` [Example 1CH], the median effective dose (ED50) (Mus musculus, po) worked out at 105 mg/kg.

With `COc1ccc(C(=O)c2c(C)n(CCCCCN3CCOCC3)c3ccc(F)cc23)cc1` [Example 1CI], the inhibition in vivo at 100 mg/kg under setting [1] was 70%.

For `COc1ccc(C(=O)c2c(C)n(CCCCN3CCOCC3)c3ccc(F)cc23)cc1` [Example 1CJ], the ED50 (Mus musculus, po) came out at 56 mg/kg.

In the case of `Cc1c(C(=O)c2cccc(F)c2F)c2ccccc2n1CCN1CCOCC1` [Example 1CK], the inhibition in vivo at 100 mg/kg under setting [1] was determined as 30%.

Consider `Cc1cccc(C)c1C(=O)c1c(C)n(CCN2CCOCC2)c2ccccc12` [Example 1CL], for which the inhibition in vivo at 100 mg/kg under setting [1] is 30%.

Regarding `Cc1c(C(=O)c2ccco2)c2ccccc2n1CCN1CCOCC1` [Example 1C], the ED50 (Mus musculus, po) is 126 mg/kg.

Take `COc1ccc(C(=O)c2c(C)n(CCN3CCOCC3)c3c(C)cccc23)cc1` [Example 1E]: the inhibition in vivo at 100 mg/kg under setting [1] is 0%.

On to `COc1ccc(C(=O)c2c(C)n(CCN3CCOCC3)c3ccc(F)cc23)cc1` [Example 1G], for which, under setting [3], the inhibition in vivo at 3 mg/kg worked out at 0% and the inhibition in vivo at 10 mg/kg turned out to be 50%. In addition, the inhibition in vivo at 30 mg/kg under setting [4] came out at 100%. Also, the ED50 (Mus musculus, po) is 84 mg/kg.

Regarding `COc1ccc(C(=O)c2c(C)n(CCN3CCOCC3)c3ccccc23)cc1` [Example 1H], under setting [3], the inhibition in vivo at 3 mg/kg turned out to be 0% and the inhibition in vivo at 10 mg/kg was determined as 30%. Further, under setting [4], the inhibition in vivo at 30 mg/kg was 100%. In addition, the inhibition in vivo at 100 mg/kg under setting [1] was 33%. Under setting [2], the inhibition in vivo at 300 mg/kg worked out at 71%. Also, the inhibition in vivo at 30 mg/kg under setting [5] came to 2%.
